Literature values, collected in patent US20230109626A1 (priority 2020, published 2023).

Conditions: for solubility in water: at 20° C.

Row | SMILES | solubility (temperature not given) | solubility in water
1 | [H]/N=C(\N/C(=N/[H])NCCCCCCNC(=N)NC(=N)Nc1ccc(Cl)cc1)Nc1ccc(Cl)cc1 [Chlorhexidine] | about 80 mg/100 mL | 80 mg/100 mL
2 | N=C(NCCCCCCNC(=N)NC(=N)Nc1ccc(Cl)cc1)NC(=N)Nc1ccc(Cl)cc1.O=C(O)[C@H](O)[C@@H](O)[C@H](O)[C@H](O)CO.O=C(O)[C@H](O)[C@@H](O)[C@H](O)[C@H](O)CO [chlorhexidine gluconate] | – | ≥ 2100 mg/100 mL
